Measured values reported in patent publication US8895585B2, “Nicotinamide derivative or salt thereof” (FUJIFILM Corporation, priority 2010, dated 2014).

target: T1, glutathione S-transferase (GST)-fused full-length human Syk protein (Homo sapiens, UniProt P43405); test: Syk enzyme assay; assay type: biochemical; conditions: Syk enzyme assay, Test Example 1; read-out: IC50 of Syk-inhibitory activity
T1 construct: (GST)-fused full-length human Syk protein; GST (glutathione S-transferase); purchased Carna Biosciences
Summary of the method: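 IC50 values come from a time-resolved FRET readout (615 and 665 nm) of substrate phosphorylation, measured after an EDTA stop and 1 h antibody binding. The kinase reaction ran 40 min at room temperature with 27 μM ATP and 0.4 μM biotin-peptide, following a 15 min compound preincubation with baculovirus-made GST-full-length human Syk.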

Row | IC50 [nM] | Compound
1 | 100 to 1000 | NC(=O)c1cc(F)c(NC2CCCCC2N)nc1Nc1cncc(NC(=O)c2ccc(OC(F)(F)F)cc2)c1 (stereo not drawn) [Example 027-016]
2 | 50 to 100 | NC(=O)c1cc(F)c(NC2CCCCC2N)nc1Nc1cncc(NC(=O)c2ccc(Cl)cc2Cl)c1 (stereo not drawn) [Example 027-018]
3 | 10 to 50 | COc1ccc(C(=O)Nc2cncc(Nc3nc(NC4CCCCC4N)c(F)cc3C(N)=O)c2)c(OC)c1 (stereo not drawn) [Example 027-019]
4 | 10 to 50 | NC(=O)c1cc(F)c(NC2CCCCC2N)nc1Nc1cncc(NC(=O)c2cccnc2)c1 (stereo not drawn) [Example 027-021]
5 | 10 to 50 | NC(=O)c1cc(F)c(NC2CCCCC2N)nc1Nc1cncc(NC(=O)c2ccncc2)c1 (stereo not drawn) [Example 027-022]
6 | 50 to 100 | Cc1ccccc1C(=O)Nc1cncc(Nc2nc(NC3CCCCC3N)c(F)cc2C(N)=O)c1 (stereo not drawn) [Example 027-023]
7 | 10 to 50 | COc1ccccc1C(=O)Nc1cncc(Nc2nc(NC3CCCCC3N)c(F)cc2C(N)=O)c1 (stereo not drawn) [Example 027-024]
8 | 10 to 50 | CCOc1ccccc1C(=O)Nc1cncc(Nc2nc(NC3CCCCC3N)c(F)cc2C(N)=O)c1 (stereo not drawn) [Example 027-025]
9 | 50 to 100 | NC(=O)c1cc(F)c(NC2CCCCC2N)nc1Nc1cncc(NC(=O)c2ccccc2OC(F)(F)F)c1 (stereo not drawn) [Example 027-026]
10 | 10 to 50 | NC(=O)c1cc(F)c(NC2CCCCC2N)nc1Nc1cncc(NC(=O)c2cccc(F)c2)c1 (stereo not drawn) [Example 027-027]
11 | 10 to 50 | COc1cccc(C(=O)Nc2cncc(Nc3nc(NC4CCCCC4N)c(F)cc3C(N)=O)c2)c1 (stereo not drawn) [Example 027-028]
12 | 10 to 50 | NC(=O)c1cc(F)c(NC2CCCCC2N)nc1Nc1cncc(NC(=O)c2ccc(F)cc2F)c1 (stereo not drawn) [Example 027-029]
13 | < 10 | NC(=O)c1cc(F)c(NC2CCCCC2N)nc1Nc1cncc(NC(=O)c2cccs2)c1 (stereo not drawn) [Example 027-031]
14 | < 10 | NC(=O)c1cc(F)c(NC2CCCCC2N)nc1Nc1cncc(NC(=O)c2ccsc2)c1 (stereo not drawn) [Example 027-032]
15 | 10 to 50 | NC(=O)c1cc(F)c(NC2CCCCC2N)nc1Nc1cncc(NC(=O)c2ccc3c(c2)OCO3)c1 (stereo not drawn) [Example 027-034]
16 | 10 to 50 | NC(=O)c1cc(F)c(NC2CCCCC2N)nc1Nc1cncc(NC(=O)c2ccc3c(c2)OCCO3)c1 (stereo not drawn) [Example 027-035]
17 | 10 to 50 | NC(=O)c1cc(F)c(NC2CCCCC2N)nc1Nc1cncc(NC(=O)c2ccc3occc3c2)c1 (stereo not drawn) [Example 027-037]
18 | 10 to 50 | NC(=O)c1cc(F)c(NC2CCCCC2N)nc1Nc1cncc(NC(=O)c2ccc3sccc3c2)c1 (stereo not drawn) [Example 027-038]
19 | 10 to 50 | NC(=O)c1cc(F)c(NC2CCCCC2N)nc1Nc1cncc(NC(=O)c2csc3ccccc23)c1 (stereo not drawn) [Example 027-039]
20 | 10 to 50 | NC(=O)c1cc(F)c(NC2CCCCC2N)nc1Nc1cncc(NC(=O)c2cc3ccccc3s2)c1 (stereo not drawn) [Example 027-040]
21 | < 10 | NC(=O)c1cc(F)c(NC2CCCCC2N)nc1Nc1cncc(NC(=O)c2cc3ccccc3o2)c1 (stereo not drawn) [Example 027-041]
22 | < 10 | CN(C)C(=O)Cn1ccc2c(Nc3nc(N[C@@H]4CCCC[C@@H]4N)c(F)cc3C(N)=O)ccnc21 [Example 029-004]

Row | IC50 [nM] | Compound
23 | < 10 | NC(=O)c1cc(F)c(NC2CCCC[C@@H]2N)nc1Nc1ccnc2c1ccn2CC(=O)N1CCCCC1 (stereo partly drawn) [Example 029-005]
24 | < 10 | NC(=O)c1cc(F)c(NC2CCCC[C@@H]2N)nc1Nc1ccnc2c1ccn2CC(=O)N1CCOCC1 (stereo partly drawn) [Example 029-006]
25 | 10 to 50 | CNC(=O)c1cc2c(Nc3nc(NC4CCCCC4N)c(F)cc3C(N)=O)ccnc2n1C (stereo not drawn) [Example 029-008]
26 | 100 to 1000 | CN(C)C(=O)c1cc2c(Nc3nc(N[C@@H]4CCCC[C@@H]4N)c(F)cc3C(N)=O)ccnc2n1C [Example 029-009]
27 | 100 to 1000 | Cn1c(C(=O)N2CCOCC2)cc2c(Nc3nc(NC4CCCC[C@@H]4N)c(F)cc3C(N)=O)ccnc21 (stereo partly drawn) [Example 029-010]
28 | 100 to 1000 | Cn1c(C(=O)NCCN2CCOCC2)cc2c(Nc3nc(N[C@@H]4CCCC[C@@H]4N)c(F)cc3C(N)=O)ccnc21 [Example 029-011]
29 | < 10 | NC(=O)c1cc(Nc2nc(N[C@@H]3CCCC[C@@H]3N)c(F)cc2C(N)=O)ccn1 [Example 029-012]
30 | 10 to 50 | CNC(=O)c1cc(Nc2nc(NC3CCCC[C@@H]3N)c(F)cc2C(N)=O)ccn1 (stereo partly drawn) [Example 029-013]
31 | 50 to 100 | CN(C)C(=O)c1cc(Nc2nc(NC3CCCC[C@@H]3N)c(F)cc2C(N)=O)ccn1 (stereo partly drawn) [Example 029-014]
32 | 100 to 1000 | NCCNc1nc(Nc2cccc(C(=O)N3CCCCC3)c2)c(C(N)=O)cc1F [Example 031-002]
33 | 100 to 1000 | COc1cc(Nc2nc(NC(C)(C)C(N)=O)c(F)cc2C(N)=O)cc(OC)c1 [Example 033-002]
34 | 100 to 1000 | COc1cc(Nc2nc(NCCC(N)=O)c(F)cc2C(N)=O)cc(OC)c1 [Example 033-003]
35 | 100 to 1000 | COc1cc(Nc2nc(N[C@@H](C(N)=O)C(C)(C)C)c(F)cc2C(N)=O)cc(OC)c1 [Example 033-005]
36 | 100 to 1000 | COc1cc(Nc2nc(NC3CCCC3C(N)=O)c(F)cc2C(N)=O)cc(OC)c1 (stereo not drawn) [Example 033-007]
37 | < 10 | Cc1cc(C)cc(Nc2nc(NCCN)c(Cl)cc2C(N)=O)c1 [Example 035-008]
38 | 50 to 100 | NC[C@@H](Nc1nc(Nc2ccc3ncccc3c2)c(C(N)=O)cc1F)c1ccccn1 [Example 39-5, (R)-6-((2-amino-1-(pyridin-2-yl)ethyl)amino)-5-fluoro-2-((quinolin-6-yl)amino)nicotinamide]
39 | 50 to 100 | Cc1ccc(S(=O)(=O)Nc2cccc3cc(Nc4nc(NC5CCCC[C@@H]5N)c(F)cc4C(N)=O)cnc23)cc1 (stereo partly drawn) [Example 41-4, 6-(cis-2-aminocyclohexylamino)-5-fluoro-2-((8-(4-methylphenylsulphonamide)quinolin-3-yl)amino)nicotinamide]
40 | 100 to 1000 | NC(=O)c1cc(F)c(NC2CCCC[C@@H]2N)nc1Nc1cnc2c(NS(=O)(=O)c3ccc(C(F)(F)F)cc3)cccc2c1 (stereo partly drawn) [Example 41-7, 6-(cis-2-aminocyclohexylamino)-5-fluoro-2-((8-(4-(trifluoromethyl)phenylsulphonamide)-quinolin-3-yl)amino)nicotinamide]
41 | 10 to 50 | NC(=O)c1cc(F)c(NC2CCCC[C@@H]2N)nc1Nc1cnc2c(NS(=O)(=O)Cc3ccccc3)cccc2c1 (stereo partly drawn) [Example 41-9, 6-(cis-2-aminocyclohexylamino)-5-fluoro-2-((8-(phenylmethylsulphonamide)quinolin-3-yl)amino)nicotinamide]
42 | 100 to 1000 | Cc1cc(Nc2nc(N[C@H](CCCN)[C@H](C)N)c(F)cc2C(N)=O)cnc1C [Example 045-000]
43 | 100 to 1000 | Cc1cc(Nc2nc(N[C@H](CCCN(C)C)[C@H](C)N)c(F)cc2C(N)=O)cnc1C [Example 046-000]

same assay, conditions: read-out: Syk-inhibitory activity (IC50)

Row | IC50 [nM] | Compound
44 | ≤ 1000 | NCCNc1nc(Nc2cccc(C(=O)Nc3ccccc3)c2)c(C(N)=O)cc1F [Example 30, 6-(2-aminoethylamino)-2-(3-(anilinocarbonyl)phenylamino)-5-fluoronicotinamide]
45 | ≤ 1000 | NCCNc1nc(Nc2cccc(C(=O)NC3CCCCC3)c2)c(C(N)=O)cc1F [Example 31-3, 6-((2-aminoethyl)amino)-2-((3-(cyclohexylaminocarbonyl)phenyl)amino)-5-fluoronicotinamide]
46 | ≤ 1000 | COc1cc(Nc2nc(NC(C(N)=O)C(C)C)c(F)cc2C(N)=O)cc(OC)c1 (stereo not drawn) [Example 32, 6-(1-aminocarbonyl-2-methylpropylamino)-2-(3,5-dimethoxyphenylamino)-5-fluoro nicotinamide]
47 | ≤ 1000 | COc1cc(Nc2nc(NC(C)C(N)=O)c(F)cc2C(N)=O)cc(OC)c1 (stereo not drawn) [Example 33-1, 6-((2-amino-1-methyl-2-oxoethyl)amino)-2-(3,5-dimethoxyphenylamino)-5-fluoronicotinamide]

system: THP-1 cells; test: TNFα generation assay; assay type: cell-based, human; conditions: Homo sapiens, THP-1, 7 h, IFN-γ-differentiated THP-1 cells on human IgG-coated plate, cultured 7 hours; read-out: TNFα generation inhibitory activity (IC50)
Method: THP-1 cells (2×10^5 cells/ml), which were human monocytoid cells, were cultured in the presence of 10 ng/ml IFN-γ (Roche) for 2 days, so that the cells were induced to differentiate into macrophage-like cells. The differentiation-induced THP-1 cells were recovered, and the cells (1×10^6 cell/ml) were then allowed to react with a predetermined concentration of test compound at room temperature for 30 minutes. On the other hand, 100 μl of human IgG (10 μg/ml, SIGMA-ALDRICH) diluted with PBS was added to a 96-well plate, and it was then incubated at room temperature overnight. Thereafter, the resultant was washed with PBS twice to produce a human IgG-coated plate. Subsequently, a cell solution that contained a compound was inoculated on the human IgG-coated plate (5×10^4 cells/well), and it was then cultured for 7 hours. Thereafter, the cultured solution was recovered, and the amount of TNFα secreted into the culture solution was then measured by the ELISA method (Roche/R & D Systems) or the AlphaLISA method (PerkinElmer).

Row | IC50 [nM] | Compound
48 | ≤ 200 | NC(=O)c1cc(F)c(N[C@@H]2CCCC[C@@H]2N)nc1Nc1cncc(-c2ccccc2)c1 (relative stereo) [Example 2-1, 6-(cis-2-aminocyclohexylamino)-5-fluoro-2-((5-phenylpyridin-3-yl)amino)nicotinamide]
49 | ≤ 200 | Cc1cccc(Nc2nc(N[C@@H]3CCCC[C@@H]3N)c(F)cc2C(N)=O)c1 (relative stereo) [Example 2-3, 6-(cis-2-aminocyclohexylamino)-5-fluoro-2-((3-methyl-phenyl)amino)nicotinamide]
50 | ≤ 200 | NC(=O)c1cc(F)c(N[C@@H]2CCCC[C@@H]2N)nc1Nc1ccc(N2CCOCC2)cc1 (relative stereo) [Example 2-5, 6-(cis-2-aminocyclohexylamino)-5-fluoro-2-((4-(morpholin-4-yl)phenyl)amino)nicotinamide]
51 | ≤ 200 | COc1cc(Nc2nc(N[C@@H]3CCCC[C@@H]3N)c(F)cc2C(N)=O)cc(OC)c1OC (relative stereo) [Example 2-7, 6-(cis-2-aminocyclohexylamino)-5-fluoro-2-((3,4,5-trimethoxy-phenyl)amino)nicotinamide]
